Results on 3 compounds are retold here after patent US20210038682A1, “MODULATORS OF SMALL CONDUCTANCE CALCIUM ACTIVATED K+ CHANNELS AND PHARMACEUTICAL COMPOSITIONS FOR USE IN THE TREATMENT OF LESIONAL VESTIBULAR DISORDERS” (priority 2018, published 2021).

The subject of data set [1] is UVN adult female rats. In words: Subjective scoring of vestibular syndrome severity in the rat unilateral vestibular neurectomy model. The format is in vivo. How it is done: (§1) A unilateral vestibular neurectomy (UVN) was performed on adult female rats in order to induce unilateral vestibulopathy. Then, the small conductance calcium activated K^+ channels antagonists apamin, AG525E1 and NS8593 were administered intraperitoneally to UVN animals in double blind conditions once a day for 4 days, i.e. during the acute phase of the syndrome. It was then assessed the severity of posturo-locomotor deficits using appropriate behavior tests for 10 days after UVN. Subjective scoring of the vestibular syndrome was carried out according to the method previously published (Péricat et al. 2017; Tighilet et al. 2017). […]

Data set [2] deals with UVN adult female rats. In words: Posturo-locomotor behavior tests (velocity, distance, immobility, meander) in the rat unilateral vestibular neurectomy model. The following applies: AG525E1 10 mg/kg i.p., from day 1. The format is in vivo. How it is done: as §1
The conditions of data set [3]: systemic administration; cited from earlier work.

As to `COc1cc2c(cc1OC)C(CCCC1c3cc(OC)c(OC)cc3CCN1C)N(C)CC2` (stereo not shown) [AG525E1, 1,1′-(propane-1,3-diyl)-bis-(6,7-dimethoxy-2-methyl-1,2,3,4-tetrahydroisoquinoline)], the Vestibular syndrome severity entry with UVN adult female rats [1] (AG525E1 10 mg/kg i.p. once a day for 4 days, at day 1, p<0.05 vs negative control) is “significant decreased vestibular syndrome”. The Immobility time entry in the data set with UVN adult female rats [2] is recorded as “tendency to reduce immobility time”.
As for `Cl.c1ccc2c(c1)CCC[C@H]2Nc1nc2ccccc2[nH]1` [NS8593, N-[(1R)-1,2,3,4-Tetrahydro-1-naphthalenyl]-1H-benzimidazol-2-amine hydrochloride], in the data set on UVN adult female rats [1] (NS8593 30 mg/kg i.p. once a day for 4 days, at day 1 and day 2, p<0.05 vs negative control), the Vestibular syndrome severity entry is reported as “significant decreased vestibular syndrome”.
`CC(C)C[C@@H]1NC(=O)[C@H](C)NC(=O)[C@H]([C@@H](C)O)NC(=O)[C@H](CCC(=O)O)NC(=O)[C@@H]2CCCN2C(=O)[C@H](C)NC(=O)[C@H](CCCCN)NC(=O)[C@@H]2CSSC[C@@H](C(=O)N[C@@H](CCC(N)=O)C(=O)N[C@@H](CCC(N)=O)C(=O)N[C@@H](Cc3cnc[nH]3)C(N)=O)NC(=O)[C@H](CCCNC(=N)N)NC(=O)[C@H](CCCNC(=N)N)NC(=O)[C@H](C)NC(=O)[C@H](CSSC[C@H](N)C(=O)N[C@@H](CC(N)=O)C(=O)N2)NC1=O` [apamin]: the Blood-brain barrier crossing entry in data set [3] is “cross the blood-brain barrier”.
